Drawing on PubChem BioAssay (NCI), this text covers GI50 and TGI for 10 compounds.

Test systems include A549 NSCLC; HL-60(TB) leukemia; NCI-H23 lung; NCI/ADR-RES ovarian; RXF 393 renal; SF-295 CNS; SF-539 CNS; UO-31 renal; NCI-H226 lung; SF-268 CNS.
Common to all, as to assay: NCI tumour cell line growth inhibition, 48 h

Molecules are shown by their SMILES.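 Interpolation was linear, between the two tested concentrations surrounding the appropriate level; five concentrations were tested over 48 hours in 96-well plates. GI50 is the concentration that inhibits growth by half. TGI denotes the concentration required for complete inhibition of growth.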 Bounds are passed on as bounds.

With `C[C@]12CC/C(=N\O)C[C@@H]1CC[C@@H]1[C@@H]2CC[C@]2(C)/C(=N/O)CC[C@@H]12`, the GI50 was 52.7 µM in the test with A549 NSCLC; 23.2 µM with HL-60(TB) leukemia; 45.6 µM with NCI-H23 lung; 44.2 µM with NCI/ADR-RES ovarian; 34.1 µM with RXF 393 renal; 38.2 µM with SF-295 CNS. For the same compound, the GI50 was 37.9 µM with SF-539 CNS and 31.5 µM in the test with UO-31 renal. Also, the TGI in the test on A549 NSCLC is more than 100 µM; in the test with HL-60(TB) leukemia, more than 100 µM; with NCI-H23 lung it was 80.2 µM; in the test on NCI/ADR-RES ovarian, more than 100 µM; with RXF 393 renal it was 71.4 µM; with SF-295 CNS, more than 100 µM. Also, the TGI was more than 100 µM with SF-539 CNS and 78.4 µM in the test on UO-31 renal.

With `N#Cc1c(N)n(C2OC(CO)C(O)C2O)c2ncnc(N)c12` (centres undefined), the TGI in the test on NCI-H226 lung was 0.372 µM; in the test with NCI-H23 lung, 0.206 µM; in the test with NCI/ADR-RES ovarian it was 0.137 µM; with RXF 393 renal, 1.33 µM; with SF-268 CNS it was 1.81 µM; in the test on SF-295 CNS, 2.45 µM. The compound also gave a TGI in the test on SF-539 CNS of 0.417 µM.

As for `COc1cc(-c2nn(-c3ccc(NC(=O)Nc4ccc(Cl)c(C(F)(F)F)c4)cc3)cc2-c2ccncc2)ccc1Cl`, the GI50 with A549 NSCLC was 2.66 µM; with NCI-H226 lung, 2.14 µM; in the test with NCI-H23 lung it was 1.98 µM; in the test with NCI/ADR-RES ovarian, 2.12 µM; in the test with RXF 393 renal, 1.54 µM; with SF-268 CNS, 1.93 µM. Also, the results for the GI50 in the test on SF-539 CNS and with UO-31 renal were 1.76 µM and 1.44 µM, respectively. Further, the TGI in the test on A549 NSCLC amounted to 11.4 µM; in the test on NCI-H226 lung it was 7.22 µM; with NCI-H23 lung, 5.79 µM; in the test on NCI/ADR-RES ovarian, 7.85 µM; in the test on RXF 393 renal, 4.41 µM; in the test on SF-268 CNS, 5.01 µM. Moreover, the TGI in the test on SF-539 CNS stood at 3.98 µM; in the test on UO-31 renal, 3.13 µM.

Consider `COc1ccc(Nc2[nH]n(C3=Nc4ccccc4Sc4ccccc43)c(=O)c2C#N)cc1`, for which the GI50 with A549 NSCLC was 1.62 µM; in the test on NCI-H226 lung it was 1.48 µM; with NCI-H23 lung it was 0.637 µM; with NCI/ADR-RES ovarian, 1.43 µM; with RXF 393 renal it was 1.73 µM; with SF-268 CNS, 2.37 µM. Also, the GI50 was 0.56 µM in the test with SF-295 CNS, 3.37 µM in the test with SF-539 CNS and 1.02 µM in the test on UO-31 renal. Also, the TGI was more than 100 µM in the test on A549 NSCLC; 9.81 µM with NCI-H226 lung; 6.64 µM in the test with NCI-H23 lung; 6.64 µM in the test on NCI/ADR-RES ovarian; 9.75 µM in the test with RXF 393 renal; 34.3 µM with SF-268 CNS. The results for the TGI in the test on SF-295 CNS, with SF-539 CNS and with UO-31 renal were 4.34 µM, 40.9 µM and more than 100 µM, respectively.

For the compound `COC1=CC(=O)c2c(O)c3c(c(O)c2C1=O)OC1(Oc2c(cc4cc(C)oc(=O)c4c2O)CC1O)C3O` (centres undefined), the TGI in the test with A549 NSCLC, with HL-60(TB) leukemia, in the test on NCI-H23 lung, with NCI/ADR-RES ovarian, in the test with SF-268 CNS and with SF-295 CNS was more than 100 µM throughout. Besides, the TGI with SF-539 CNS and in the test on UO-31 renal was more than 100 µM each time.

As for `COc1ccc(-c2c(-c3cc4c(c(OC)c3OC)OCO4)noc2N)cc1`, the GI50 in the test with A549 NSCLC was 0.544 µM; with HL-60(TB) leukemia it was 0.214 µM; in the test on NCI-H226 lung it was 0.804 µM; in the test with NCI-H23 lung, 0.427 µM; in the test on NCI/ADR-RES ovarian, 0.131 µM; in the test with SF-268 CNS, 0.745 µM. Moreover, the GI50 in the test with SF-295 CNS was 0.275 µM; in the test on SF-539 CNS it was 0.32 µM; with UO-31 renal, 2.69 µM. In addition, the TGI was more than 100 µM with A549 NSCLC; 1.46 µM with HL-60(TB) leukemia; more than 100 µM with NCI-H226 lung; more than 100 µM with NCI-H23 lung; 0.741 µM in the test on NCI/ADR-RES ovarian; more than 95.8 µM in the test with SF-268 CNS. Also, the TGI with SF-295 CNS and in the test on UO-31 renal was more than 100 µM each time.

As to `C[C@@]1([C@H](OC(=O)c2cccc3ccccc23)C(N)=O)CO1`, the GI50 with A549 NSCLC is 2.12 µM; in the test on NCI-H226 lung, 1.46 µM; in the test with NCI-H23 lung it was 1.23 µM; with NCI/ADR-RES ovarian it was 0.54 µM; in the test with RXF 393 renal, 4.91 µM; with SF-268 CNS it was 4.62 µM. Moreover, the GI50 in the test with SF-295 CNS was 0.427 µM; in the test with SF-539 CNS, 0.642 µM; in the test on UO-31 renal, 2.25 µM. Also, the TGI is more than 20.7 µM with A549 NSCLC; 5.9 µM with NCI-H226 lung; 5.65 µM in the test with NCI-H23 lung; 4.8 µM with NCI/ADR-RES ovarian; more than 21.3 µM with RXF 393 renal; more than 43 µM in the test on SF-268 CNS. Also, the values for the TGI with SF-295 CNS, in the test with SF-539 CNS and with UO-31 renal were 9.28 µM, 2.33 µM and 8.8 µM, respectively.

Turning to `COc1ccc(C(=C(C#N)C#N)c2ccc(OC)cc2)cc1`, the TGI with A549 NSCLC, in the test with HL-60(TB) leukemia, with NCI-H226 lung, with NCI-H23 lung, in the test on RXF 393 renal and in the test with SF-268 CNS was more than 100 µM throughout. Moreover, the TGI in the test with SF-295 CNS, in the test with SF-539 CNS and in the test on UO-31 renal was more than 100 µM throughout.

Turning to `Nc1ncnc2c1ncn2C1OC(CO)CC1O` (centres undefined), the TGI in the test on A549 NSCLC is more than 100 µM; in the test with NCI-H226 lung, more than 100 µM; in the test with NCI-H23 lung, more than 100 µM; with NCI/ADR-RES ovarian, 55.2 µM; in the test with RXF 393 renal, more than 100 µM; with SF-268 CNS, more than 100 µM. Further, the TGI with SF-295 CNS, in the test with SF-539 CNS and with UO-31 renal was more than 100 µM each time.

For the compound `CN(Cc1ccccc1)c1ncnc2ccc(Br)cc12`, the GI50 is 17.5 µM with A549 NSCLC; 13.8 µM in the test with NCI-H226 lung; 11.3 µM in the test with NCI-H23 lung; 8.94 µM in the test on NCI/ADR-RES ovarian; 13.7 µM with RXF 393 renal; 10.2 µM with SF-268 CNS. For the same compound, the GI50 in the test with SF-295 CNS was 13.5 µM; with UO-31 renal, 13.3 µM. Moreover, the TGI is 45.8 µM with A549 NSCLC; 39.1 µM in the test on NCI-H226 lung; 28.9 µM in the test with NCI-H23 lung; 33.3 µM with NCI/ADR-RES ovarian; 31 µM in the test on RXF 393 renal; 27.5 µM with SF-268 CNS. Also, the TGI was determined as 28.1 µM with SF-295 CNS and 49.5 µM in the test on UO-31 renal.
